In one data set the target is KRAS (WT)::SOS1 (Homo sapiens (Human), UniProt P01116, C118S). The data set can be described thus: KRAS::SOS1 AlphaScreen binding assay, KRAS WT. In a few lines: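 KRAS 1-169 (biotinylated avi-tag) with GST-SOS1 564-1049 and 10 µM GDP in PBS/0.1% BSA/0.05% Tween 20: WT and G13D 10 nM each with 10 nM SOS1; G12D 10 nM and G12C 7.5 nM with 5 nM SOS1. After 30 min, glutathione acceptor/streptavidin donor beads were added for 60 min at RT in the dark, then AlphaScreen read; 4-parameter IC50.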
Chain of KRAS (WT)::SOS1 (P01116 other isoform, or with tags, fused parts or gaps C118S): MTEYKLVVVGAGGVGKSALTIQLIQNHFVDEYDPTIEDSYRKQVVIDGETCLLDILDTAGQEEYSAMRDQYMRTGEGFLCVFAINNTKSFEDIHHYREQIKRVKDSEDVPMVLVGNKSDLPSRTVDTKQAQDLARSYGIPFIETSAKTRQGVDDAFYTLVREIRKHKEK
(In general: In Alpha technology, singlet oxygen from a donor bead excites a nearby acceptor bead.)

In the next data set the test system is GP2D cells. The data set can be described thus: GP2D proliferation assay (120 h) (colorectal cancer, G12D). It is filed as cell-based. An outline of the steps:
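500 cells/well in DMEM + GlutaMAX + 10% FCS, exposed to a logarithmic compound dose series (DMSO-normalized) for 120 h. Viability read by CellTiter-Glo luminescence as percent of DMSO control, with an untreated T0 read at dosing; IC50 from four-parameter non-linear regression.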

In a further data set the target is CYP3A4 (Homo sapiens (Human), UniProt P08684). Description: Mechanism based inhibition of CYP3A4 assay (MBI 3A4). The conditions noted are these: hydroxy-midazolam formation after 30 min vs 0 min preincubation, 25 uM, human liver microsomes. Format: in vitro ADME. An outline of the steps:
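Readout is hydroxy-midazolam formed after 30 min preincubation relative to 0 min, measured by LC/MS-MS after acetonitrile quench. Following preincubation, samples diluted 1:10 and incubated 15 min with midazolam substrate.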

As a reminder, the IC50 is the midpoint of a concentration-inhibition curve. High values mean weaker potency in that assay, low ones greater potency in that assay.

Chain of CYP3A4 (P08684 whole entry): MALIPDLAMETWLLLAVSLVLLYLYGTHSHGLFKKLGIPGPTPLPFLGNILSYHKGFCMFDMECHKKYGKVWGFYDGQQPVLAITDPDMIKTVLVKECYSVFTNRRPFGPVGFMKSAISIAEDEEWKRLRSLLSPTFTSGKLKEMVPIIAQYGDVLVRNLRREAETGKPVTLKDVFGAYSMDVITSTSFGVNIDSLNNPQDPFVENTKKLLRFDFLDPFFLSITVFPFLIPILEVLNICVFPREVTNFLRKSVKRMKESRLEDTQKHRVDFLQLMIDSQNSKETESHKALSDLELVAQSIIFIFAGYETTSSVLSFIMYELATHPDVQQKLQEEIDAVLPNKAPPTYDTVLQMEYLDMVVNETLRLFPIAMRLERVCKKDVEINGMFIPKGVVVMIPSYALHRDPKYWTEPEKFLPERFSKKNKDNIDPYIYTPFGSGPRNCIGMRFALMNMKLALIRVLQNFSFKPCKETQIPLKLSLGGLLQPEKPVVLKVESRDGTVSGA

Regarding `C[C@H](Oc1cc(-n2ccc(-c3cnccn3)n2)nc(-c2noc3c2CCC[C@@]32CCCc3sc(N)c(C#N)c32)n1)[C@@H]1CCCN1C` [II-130], the results for the IC50 at KRAS (WT)::SOS1 and in the data set on GP2D cells were 5 nM and 233 nM, respectively. The “MBI 3A4” value on CYP3A4 is given as 67%.

`C[C@H](Oc1cc(-n2cc3c(n2)CCN(C)C3)nc(-c2noc3c2CCC[C@@]32CCCc3sc(N)c(C#N)c32)n1)[C@@H]1CCCN1C` [II-141]: the IC50 at KRAS (WT)::SOS1 worked out at 3 nM; in the data set with GP2D cells, 4 nM. In addition, the “MBI 3A4” value at CYP3A4 turned out to be 88%.

As for `C[C@H](Oc1cc(N2CCN(C)C3(COC3)C2)nc(-c2noc3c2CCC[C@@]32CCCc3sc(N)c(C#N)c32)n1)[C@@H]1C[C@@H](F)CN1C` [II-148], the results for the IC50 at KRAS (WT)::SOS1 and in the data set on GP2D cells were 5 nM and 11 nM, respectively. Further, the “MBI 3A4” value on CYP3A4 stood at 55%.

`C[C@H](Oc1cc(N2CCN(C)C3(CC3)C2)nc(-c2noc3c2CCC[C@@]32CCCc3sc(N)c(C#N)c32)n1)[C@@H]1C[C@@H](F)CN1C` [II-149]: the values for the IC50 on KRAS (WT)::SOS1 and in the data set with GP2D cells were 12 nM and 8 nM, respectively. Besides, the “MBI 3A4” value at CYP3A4 came to 42%.

Take `C[C@H](Oc1cc(N2CCNC3(COC3)C2)nc(-c2noc3c2CCC[C@@]32CCCc3sc(N)c(C#N)c32)n1)[C@@H]1C[C@@H](F)CN1C` [II-150]: the IC50 was found to be 3 nM on KRAS (WT)::SOS1 and 1 nM in the data set with GP2D cells. Also, the “MBI 3A4” value at CYP3A4 came out at 49%.

In the case of `C[C@H](Oc1cc(N2CCN(C)C3(CCOC3)C2)nc(-c2noc3c2CCC[C@@]32CCCc3sc(N)c(C#N)c32)n1)[C@@H]1C[C@@H](F)CN1C` (stereo partly shown) [II-151], the half-maximal inhibitory concentration (IC50) at KRAS (WT)::SOS1 is 8 nM; in the data set with GP2D cells, 32 nM.

Take `CO[C@@H]1C[C@@H]([C@H](C)Oc2cc(N3CCN(C)C4(CC4)C3)nc(-c3noc4c3CCC[C@@]43CCCc4sc(N)c(C#N)c43)n2)N(C)C1` [II-152]: the IC50 at KRAS (WT)::SOS1 worked out at 14 nM; in the data set with GP2D cells it was 13 nM.

Take `C[C@H](Oc1nc(-c2noc3c2CCC[C@@]32CCCc3sc(N)c(C#N)c32)nc(N2CCNC3(CC3)C2)c1F)[C@@H]1C[C@@H](F)CN1C` [II-155]: the IC50 on KRAS (WT)::SOS1 is 4 nM; in the data set with GP2D cells it was 1 nM.

Turning to `C[C@H](Oc1nc(-c2noc3c2CCC[C@@]32CCCc3sc(N)c(C#N)c32)nc(N2CCNC3(CC3)C2)c1Cl)[C@@H]1C[C@@H](F)CN1C` [II-156], the IC50 at KRAS (WT)::SOS1 was 6 nM; in the data set on GP2D cells, 1 nM.

For `C[C@H](Oc1nc(-c2noc3c2CCC[C@@]32CCCc3sc(N)c(C#N)c32)nc(N2C[C@H](C)NC3(CC3)C2)c1F)[C@@H]1C[C@@H](F)CN1C` [II-157], the IC50 came out at 5 nM at KRAS (WT)::SOS1 and 2 nM in the data set on GP2D cells.

As for `C[C@@H]1CN(c2nc(-c3noc4c3CCC[C@@]43CCCc4sc(N)c(C#N)c43)nc(O[C@@H](C)[C@@H]3C[C@@H](F)CN3C)c2F)CC2(CC2)N1` [II-158], the IC50 on KRAS (WT)::SOS1 amounted to 4 nM; in the data set on GP2D cells, 9 nM.

Regarding `C[C@H](Oc1cc(N2CCN[C@@H](C)C2)nc(-c2noc3c2CCC[C@@]32CCCc3sc(N)c(C#N)c32)n1)[C@@H]1CCCN1C` [II-162], the IC50 on KRAS (WT)::SOS1 stood at 8 nM; with GP2D cells, 30 nM. Also, the “MBI 3A4” value on CYP3A4 was 84%.

On to `C[C@H](Oc1cc(C2=CCNCC2)nc(-c2noc3c2CCC[C@@]32CCCc3sc(N)c(C#N)c32)n1)[C@@H]1CCCN1C` [II-164], for which the IC50 turned out to be 8 nM at KRAS (WT)::SOS1 and 23 nM in the data set with GP2D cells.

As to `C[C@H](Oc1cc(N2CCNC3(CC3)C2)nc(-c2noc3c2CCC[C@@]32CCCc3sc(N)c(C#N)c32)n1)[C@@H]1C[C@@H](F)CN1C` [II-165], the IC50 at KRAS (WT)::SOS1 is 5 nM; in the data set with GP2D cells, 1 nM.

In the case of `C[C@H](Oc1cc(-n2cc3c(n2)CNC3)nc(-c2noc3c2CCC[C@@]32CCCc3sc(N)c(C#N)c32)n1)[C@@H]1CCCN1C` [II-168], the IC50 was 3 nM on KRAS (WT)::SOS1 and 12 nM in the data set with GP2D cells.

Turning to `C[C@H](Oc1cc(N2CCN(C)C3(CC3)C2)nc(-c2noc3c2CCC[C@@]32CCCc3sc(N)c(C#N)c32)n1)[C@@H]1CCCN1C` [II-171], the 50% inhibitory concentration (IC50) was 7 nM at KRAS (WT)::SOS1 and 5 nM in the data set with GP2D cells. The “MBI 3A4” value on CYP3A4 amounted to 63%.

For `C[C@H](Oc1cc(-n2cc3c(n2)CN(C)C3)nc(-c2noc3c2CCC[C@@]32CCCc3sc(N)c(C#N)c32)n1)[C@@H]1CCCN1C` [II-174], the IC50 at KRAS (WT)::SOS1 stood at 4 nM; with GP2D cells, 3 nM.

Take `C[C@H](Oc1nc(-c2noc3c2CCC[C@@]32CCCc3sc(N)c(C#N)c32)nc(N2CCN(C)C3(CC3)C2)c1Cl)[C@@H]1C[C@@H](F)CN1C` [II-176]: the IC50 was 31 nM at KRAS (WT)::SOS1 and 50 nM in the data set on GP2D cells.

With `C[C@H](Oc1cc(-n2ccc(C(=O)N[C@@H]3CCOC3)n2)nc(-c2noc3c2CCC[C@@]32CCCc3sc(N)c(C#N)c32)n1)[C@@H]1CCCN1C` [II-192], the IC50 on KRAS (WT)::SOS1 was 5 nM; with GP2D cells it was 31 nM. Further, at CYP3A4, the “MBI 3A4” value is given as 49%.

Source of the values: patent US20240174690A1, “ANNULATED 2-AMINO-3-CYANO THIOPHENES AND DERIVATIVES FOR THE TREATMENT OF CANCER” (BOEHRINGER INGELHEIM INTERNATIONAL GMBH, priority 2021, published 2024).
